Laboratory results reported in patent publication US20240316038A1, “APOL1 INHIBITORS AND METHODS OF USE” (Maze Therapeutics, Inc., priority 2021, published 2024).
pEC50: −log10 of the molar value.

How the values were obtained:
APOL1 G2 [1] = biological target: T1, APOL1 G2 (Homo sapiens, UniProt O14791, DEL388-389); test: APOL1 calcium transport inhibition assay (GCaMP6f calcium influx, FLIPR) in HEK T-REx/GCaMP6f/APOL1 G2 K6.3 cells; format: cell-based; conditions: inhibition of APOL1-mediated calcium influx; geometric mean of at least 2 assay runs, † = single assay run (technical duplicate)
T1 construct: expressed in transfected cells; host or cells: HEK293 T-REx clonal lines: HEK T-REx/GCaMP6f/APOL1 G2 K6.3 in A1, HEK293/T-REx APOL1 G2/clone #2 in A2
T1 sequence (O14791 with tags, fused parts or gaps DEL388-389): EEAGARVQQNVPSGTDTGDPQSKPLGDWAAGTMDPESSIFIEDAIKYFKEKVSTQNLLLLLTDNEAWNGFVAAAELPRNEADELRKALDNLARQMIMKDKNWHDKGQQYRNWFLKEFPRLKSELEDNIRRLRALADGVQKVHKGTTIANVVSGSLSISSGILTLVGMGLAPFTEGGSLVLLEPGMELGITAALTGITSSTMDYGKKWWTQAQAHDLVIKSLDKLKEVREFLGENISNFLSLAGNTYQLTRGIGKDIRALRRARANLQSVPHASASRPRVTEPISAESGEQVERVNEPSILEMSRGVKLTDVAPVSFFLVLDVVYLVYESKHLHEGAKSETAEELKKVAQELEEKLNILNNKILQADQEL
In short: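 HEK293 cells stably expressing GCaMP6f, APOL1 G2 induced 6 h with doxycycline (20 ng/mL added), then washed into Ca2+-free Tyrode's buffer pH 7.4. Compounds (8-point dose response) preincubated 10 min at room temperature, then Ca2+ injected to 5 mM final and influx read on FLIPR. AC50 reported as geometric mean of runs.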

APOL1 G2 [2] = biological target: T1, APOL1 G2; test: Rescue of HEK293 cell death caused by overexpression of APOL1 (CellTiter-Glo luminescence), HEK293/T-REx APOL1 G2/clone #2; format: cell-based; conditions: reversal of cell death caused by overexpression of APOL1; geometric mean of at least 2 assay runs, † = single assay run (technical duplicate)
In short: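 Rescue EC50s come from four-parameter logistic fits, geometric mean of at least 2 runs on separate days, each in duplicate. Readout: CellTiter-Glo luminescence after 17 h at 37 °C of 5,000 HEK293/T-REx APOL1 G2 clone #2 cells/well, with 6 ng/mL doxycycline to induce APOL1 and 3-fold serial compound dilutions in 0.5% DMSO.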

AC50 (APOL1 G2 [1]) [nM]	SMILES	pEC50 (APOL1 G2 [2])
107	CC1CC(COc2ccc(S(C)(=O)=O)cc2)CN1CCc1cccc(C#N)c1 (single isomer, unassigned) [Compound 140, 3-{2-[(2S,4R or 2R,4S or 2R,4R or 2S,4S)-4-[(4-methanesulfon-ylphenoxy)meth-yl]-2-methyl-pyrrolidin-1-yl]-ethyl}benzo-nitrile]	7.34
270	C[C@@H]1CN(CC(O)c2cc(Cl)cc(C#N)c2)C[C@H]1COc1ccc(S(C)(=O)=O)cc1 (single isomer, unassigned) [Compound 121, 3-chloro-5-[(1S or 1R)-1-hydroxy-2-[(3S,4S)-3-[(4-methanesulfonylphenoxy)methyl]-4-methylpyrrolidin-1-ylethyl]benzonitrile]	7.00
991	COC1CCN(CCc2cccc(Cl)c2)CC1COc1ccc(S(C)(=O)=O)cc1 (single isomer, unassigned) [Compound 34, rac-cis or trans-1-(3-chlorophenethyl)-4-methoxy-3-((4-(methylsulfonyl)phenoxy)methyl)piperidine]	6.11
1760	CS(=O)(=O)c1ccc(OC[C@@H]2CCCN(CC(O)c3cccc(Cl)c3)C2)cc1 (stereo partly drawn) [Compound 20, 1-(3-chlorophenyl)-2-((R)-3-((4-(methylsulfonyl)phenoxy)methyl)piperidin-1-yl)ethanol]	5.87
1290	CN(c1ccc(OC[C@@H](O)CN2CCC(c3cccc(Cl)c3)C2)cc1)S(C)(=O)=O (stereo partly drawn) [Compound 74, N-(4-((2S)-3-(3-(3-chlorophenyl)pyrro-lidin-1-yl)-2-hydroxypropoxy)phe-nyl)-N-methylmethanesulfon-amide]	5.59
864	CS(=O)(=O)c1ccc(OCC2CN(CCc3cccc(Cl)c3)CCC2O)cc1 (single isomer, unassigned) [Compound 30, (3R,4R) or (3S,4S) or (3R,4S) or (3S,4R)-1-(3-chlorophenethyl)-3-((4-(methylsulfonyl)phenoxy)methyl)piperidin-4-ol]	5.62
